Data set [1] concerns the target T1, CnAcs1 (Cryptococcus neoformans, UniProt J9VFT1). The experiment in a line: biochemical. Type of data set: binding. The note with it: read-out: thermal shift (ΔTm).
The target of data set [2] is T1, CnAcs1. The data set can be described thus: Coupled continuous pyrophosphate detection assay (EnzChek) of ACS activity. The note with it: for utilization as substrate for CnAcs1: alternative acid substrates.
The target of another data set is T2, A. fumigatus Acs1 (Aspergillus fumigatus, UniProt Q4WQ02).
T2 sequence (Q4WQ02 2-670): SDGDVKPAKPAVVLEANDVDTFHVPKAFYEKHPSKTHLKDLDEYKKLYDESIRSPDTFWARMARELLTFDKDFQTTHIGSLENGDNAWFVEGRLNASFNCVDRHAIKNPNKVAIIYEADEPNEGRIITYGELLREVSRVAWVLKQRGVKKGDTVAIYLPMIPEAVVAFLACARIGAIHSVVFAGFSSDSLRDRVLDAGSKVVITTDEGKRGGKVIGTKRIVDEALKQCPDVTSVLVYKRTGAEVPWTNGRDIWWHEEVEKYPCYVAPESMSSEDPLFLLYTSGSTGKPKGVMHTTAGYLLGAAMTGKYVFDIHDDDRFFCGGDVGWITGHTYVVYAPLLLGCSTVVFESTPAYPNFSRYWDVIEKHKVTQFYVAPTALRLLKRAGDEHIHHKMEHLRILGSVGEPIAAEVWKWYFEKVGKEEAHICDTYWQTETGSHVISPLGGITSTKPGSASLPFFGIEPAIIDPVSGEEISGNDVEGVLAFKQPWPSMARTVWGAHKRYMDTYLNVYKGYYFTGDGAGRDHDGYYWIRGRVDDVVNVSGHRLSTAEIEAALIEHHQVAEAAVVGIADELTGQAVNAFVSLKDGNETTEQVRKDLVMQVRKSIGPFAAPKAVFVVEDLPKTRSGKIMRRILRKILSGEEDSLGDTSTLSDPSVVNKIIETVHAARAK
Described as above.

In a further data set the target is C. albicans Acs1 (Candida albicans, UniProt Q8NJN3). The data set is described as above.
Data set [3] has as its system CC(C)(COP(=O)(O)OP(=O)(O)OC[C@H]1O[C@@H](n2cnc3c(N)ncnc32)[C@H](O)[C@@H]1OP(=O)(O)O)[C@@H](O)C(=O)NCCC(=O)NCCS. The experiment in a line: purified protein, by the assay type.
For the next data set, the target named is C. immitis Acs1 (Coccidioides immitis, UniProt J3KJC6). The experiment in a line: biochemical.
Another data set concerns the target C. posadasii Acs1 (Coccidioides posadasii, UniProt C5PGB4). The data set can be described thus: biochemical.
Data set [4] has as its system Nc1ncnc2c1ncn2[C@@H]1O[C@H](COP(=O)(O)OP(=O)(O)OP(=O)(O)O)[C@@H](O)[C@H]1O. The data set can be described thus: purified protein, by the assay type. The note with it: 37.0 °C.
Substrate in data set [5]: CC(C)(COP(=O)(O)OP(=O)(O)OC[C@H]1O[C@@H](n2cnc3c(N)ncnc32)[C@H](O)[C@@H]1OP(=O)(O)O)[C@@H](O)C(=O)NCCC(=O)NCCS
The data set can be described thus: purified protein, by the assay type. The note with it: 37 °C, ±S.E.M.

Substrate in data set [6]: Nc1ncnc2c1ncn2[C@@H]1O[C@H](COP(=O)(O)OP(=O)(O)OP(=O)(O)O)[C@@H](O)[C@H]1O
The data set can be described thus: purified protein, by the assay type. The note with it: 37 °C, ±S.E.M.

Setting [7] is: other: substrate Km, other substrates in excess.
Setting [8] is: other: substrate Km, other substrates in excess (ATP 2.5 mM, CoA 1 mM, sodium acetate 0.5 mM).
The mark [9] stands for this setting: other: commercially available enzyme, control, other substrates in excess.

Chain of C. albicans Acs1 (Q8NJN3 2-671 limits assumed): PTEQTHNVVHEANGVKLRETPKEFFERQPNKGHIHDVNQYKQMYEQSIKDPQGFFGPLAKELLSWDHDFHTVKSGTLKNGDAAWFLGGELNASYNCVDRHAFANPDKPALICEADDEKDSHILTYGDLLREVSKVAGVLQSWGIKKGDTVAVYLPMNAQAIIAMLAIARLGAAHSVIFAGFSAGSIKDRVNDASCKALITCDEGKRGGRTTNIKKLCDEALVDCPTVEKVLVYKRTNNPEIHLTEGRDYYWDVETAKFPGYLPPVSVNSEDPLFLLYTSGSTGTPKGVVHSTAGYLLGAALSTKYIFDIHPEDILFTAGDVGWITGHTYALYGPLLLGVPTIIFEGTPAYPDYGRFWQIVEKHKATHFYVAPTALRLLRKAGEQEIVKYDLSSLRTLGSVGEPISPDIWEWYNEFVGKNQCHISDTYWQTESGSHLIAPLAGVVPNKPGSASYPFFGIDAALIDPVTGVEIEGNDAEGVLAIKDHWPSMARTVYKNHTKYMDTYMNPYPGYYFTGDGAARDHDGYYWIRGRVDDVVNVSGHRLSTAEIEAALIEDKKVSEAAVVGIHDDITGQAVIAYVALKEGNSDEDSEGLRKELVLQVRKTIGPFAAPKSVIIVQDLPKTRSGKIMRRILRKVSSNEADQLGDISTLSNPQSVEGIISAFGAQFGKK
Chain of C. immitis Acs1 (J3KJC6 2-691 limits assumed): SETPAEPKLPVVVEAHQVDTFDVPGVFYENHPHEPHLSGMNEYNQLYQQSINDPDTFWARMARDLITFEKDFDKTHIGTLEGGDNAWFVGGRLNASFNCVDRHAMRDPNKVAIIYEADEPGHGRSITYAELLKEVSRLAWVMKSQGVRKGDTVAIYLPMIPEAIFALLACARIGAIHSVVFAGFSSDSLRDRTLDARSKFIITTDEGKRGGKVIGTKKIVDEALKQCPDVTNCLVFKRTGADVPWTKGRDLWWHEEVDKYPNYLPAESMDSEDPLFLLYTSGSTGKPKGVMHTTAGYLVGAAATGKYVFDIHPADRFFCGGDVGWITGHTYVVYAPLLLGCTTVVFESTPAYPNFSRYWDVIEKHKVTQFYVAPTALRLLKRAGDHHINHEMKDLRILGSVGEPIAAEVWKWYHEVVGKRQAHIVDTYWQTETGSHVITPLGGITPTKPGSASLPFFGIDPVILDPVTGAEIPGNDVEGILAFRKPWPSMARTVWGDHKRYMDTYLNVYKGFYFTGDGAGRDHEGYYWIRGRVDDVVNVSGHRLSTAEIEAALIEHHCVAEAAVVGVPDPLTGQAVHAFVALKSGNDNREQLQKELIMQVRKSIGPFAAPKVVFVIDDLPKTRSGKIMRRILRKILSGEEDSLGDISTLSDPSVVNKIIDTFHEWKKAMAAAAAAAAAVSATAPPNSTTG
Chain of C. posadasii Acs1 (C5PGB4 2-691 limits assumed): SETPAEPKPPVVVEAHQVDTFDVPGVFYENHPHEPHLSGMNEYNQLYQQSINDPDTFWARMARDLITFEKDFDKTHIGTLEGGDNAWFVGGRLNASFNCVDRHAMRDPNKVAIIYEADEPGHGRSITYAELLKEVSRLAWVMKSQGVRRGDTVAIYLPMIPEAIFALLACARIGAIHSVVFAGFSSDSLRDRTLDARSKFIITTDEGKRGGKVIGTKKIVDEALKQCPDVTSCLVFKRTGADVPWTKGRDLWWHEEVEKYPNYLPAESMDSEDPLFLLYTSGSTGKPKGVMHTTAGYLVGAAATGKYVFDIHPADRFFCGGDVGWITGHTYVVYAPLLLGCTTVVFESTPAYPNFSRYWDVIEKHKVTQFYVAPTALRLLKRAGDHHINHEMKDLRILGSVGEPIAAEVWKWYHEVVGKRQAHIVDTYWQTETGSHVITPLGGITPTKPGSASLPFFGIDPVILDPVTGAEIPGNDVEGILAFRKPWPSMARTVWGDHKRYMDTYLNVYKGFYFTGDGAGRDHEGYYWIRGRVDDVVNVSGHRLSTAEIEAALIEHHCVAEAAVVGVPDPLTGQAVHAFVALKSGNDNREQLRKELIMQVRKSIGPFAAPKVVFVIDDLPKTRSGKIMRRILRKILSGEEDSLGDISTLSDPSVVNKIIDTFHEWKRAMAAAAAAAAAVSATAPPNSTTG

For `CCCCOP(=O)(O)OC[C@H]1O[C@@H](n2cnc3c(N)ncnc32)[C@H](O)[C@@H]1O` [butyl-AMP], the ΔTm at 1000 µM on CnAcs1 [1] turned out to be 6.7 °C. Moreover, the IC50 against CnAcs1 [2], at A. fumigatus Acs1 and against C. albicans Acs1 was more than 50000 nM each time. This molecule also displayed an inhibition constant (Ki) on CnAcs1 [2] of more than 50000 nM. On CnAcs1 [2], the “inhibition of CnAcs1” value is “no inhibition”.

As for `CCC(=O)O` [propionate, reference compound], the “Km fold higher than acetate” value at CnAcs1 [2] (alternative acid substrate, relative to acetate) was more than 100 fold.

Regarding `Nc1ncnc2c1ncn2[C@@H]1O[C@H](COS(N)(=O)=O)[C@@H](O)[C@H]1O` [AMS, adenosine monosulfonamide], the ΔTm at 1000 µM at CnAcs1 [1] is -0.2 °C. This molecule also registered a Ki on CnAcs1 [2] of more than 50000 nM.

For `CCCC(=O)O` [butyrate, reference compound], the “utilization as substrate for CnAcs1” value on CnAcs1 [2] is given as “neither valerate nor butyrate were CnAcs1 substrates”. Further, on CnAcs1 [2] (non-preferred acid substrate), the “inhibition of acetate utilization” value was “does not inhibit”.

As to `CCCOP(=O)(O)OC[C@H]1O[C@@H](n2cnc3c(N)ncnc32)[C@H](O)[C@@H]1O` [propyl-AMP, propyl-adenosine monophosphate ester], the ΔTm at 1000 µM at CnAcs1 [1] was 12.2 °C. The Ki at CnAcs1 [2] was found to be 1240 ± 200 nM.

“C. albicans Acs1 (Candida albicans SC5314)”: the Km in [3] (other: substrate Km, other substrates in excess, 37 °C, ±S.E.M.) is 471 ± 45 µM.

As to `CCOP(=O)(O)OC[C@H]1O[C@@H](n2cnc3c(N)ncnc32)[C@H](O)[C@@H]1O` [ethyl-AMP], the ΔTm at 1000 µM at CnAcs1 [1] came out at 14.2 °C. Moreover, the 50% inhibitory concentration (IC50) against C. immitis Acs1 came out at 60 nM; against C. posadasii Acs1, 70 nM; at CnAcs1 [2], 2100 nM; against A. fumigatus Acs1 it was 60 nM; on C. albicans Acs1, 290 nM. For the same molecule, affinity on CnAcs1 [2] was put at a Ki of 470 nM.

In the case of “C. immitis Acs1 (Coccidioides immitis RS)”, the Km came out at 441 ± 45 µM in [3] (37.0 °C) and 102 ± 8 µM in data set [4].

As for `NCC(=O)NS(=O)(=O)OCC1OC(n2cnc3c(N)ncnc32)C(O)C1O` (centres unmarked) [glycine derivative of AMS], the “inhibition of CnAcs1” value against CnAcs1 [2] is “no inhibition”.

Regarding `Nc1ncnc2c1ncn2[C@@H]1O[C@H](COP(=O)(O)OP(=O)(O)OP(=O)(O)O)[C@@H](O)[C@H]1O` [ATP, adenosine triphosphate, reference compound], at CnAcs1 [2], the “calculated binding energy ΔG” value was -6 kcal/mol.

`CC(=O)NS(=O)(=O)OC[C@H]1O[C@@H](n2cnc3c(N)ncnc32)[C@H](O)[C@@H]1O` [acyl-AMS, acetyl-adenosine monosulfonamide] yielded a Ki at CnAcs1 [2] of 590 nM.

As to `CCCCC(=O)O` [valerate, reference compound], on CnAcs1 [2], the “utilization as substrate for CnAcs1” value is on record as “neither valerate nor butyrate were CnAcs1 substrates”.

For “C. posadasii Acs1 (Coccidioides posadasii C735 delta SOWgp)”, the Km in [3] (37.0 °C) amounted to 314 ± 32 µM; in [4], 117 ± 15 µM.

As for `COP(=O)(O)OC[C@H]1O[C@@H](n2cnc3c(N)ncnc32)[C@H](O)[C@@H]1O` [methyl-AMP], the ΔTm at 1000 µM on CnAcs1 [1] is 8.3 °C. Further, at CnAcs1 [2], the inhibition constant (Ki) turned out to be 39000 ± 11000 nM and the “fold less active than ethyl AMP ester” value is recorded as approximately 100 fold.

B1: A. fumigatus Acs1 (Aspergillus fumigatus Af293) (protein)
chain: T2 sequence (Q4WQ02 2-670)
B1: the Km was 340 ± 26 µM in data set [5] (setting [7]) and 42 ± 11 µM in [6] (setting [7]).

B2: CnAcs1 (Cryptococcus neoformans H99) (protein)
chain: GKTEVAPGVHHVHPLPDSVPESEDLFAPPPRMQGKEGRPKPHIGPNYESYVKEWAKTVGPNSDEWWAAKARETLDWYDDFKTVRAGGFEHGDVQWFPEGTLNAAYNCLDRHYYKNPKKTAIIYEADEPSESREVSYEELMQETCRVANVLKSYGVKKGDAVSIYLPMTWQAAAAFLACARIGAIHSAVFAGFSAESLRDRVNDCECKVLITTDEGRRGGKTIATKQIVDAALQQCPLVENVLVLRRTGNKVPMTEGRDKWWDEECAKMPAYCPCERMASEDPLFILYTSGSTGKPKGVVHSTAGYLLGTALTLKYVFDAHPDDRFACMADIGWITGHSYIIYGPLANGITTAVFESTPVYPTPSRYWDFVDKWKATQLYTAPTAIRLLRRMGEDHVKNHDLSSLRVLGSVGEPINPEAWHWYNDFAGKNQCAIVDTYWMTETGSISIAPLPGAISTKPGSATFPFFGMDVDIIDPQTGQVLEGNDVEGVLVARRPWPSIARTVYRDHKRYLETYMKPYPGYFFFGDGAARDYDGYMWIKGRVDDVINVSGHRLSTAEVESALILHKGVAETAVVGCADDLTGQAVYAFVTMKPEFDLKATKEADLSKELAIQVRKVIGPFAAPKKIYLVSDLPKTRSGKIMRRVLRKIVAGEGDQLGDLSSIADPQIVEEVKQKVTGSA
For the molecule B2, the Km in data set [5] (setting [8]) was found to be 880 ± 170 µM; in data set [6] (setting [8]), 59 ± 10 µM.

B3: S. cerevisiae Acs1 (Saccharomyces cerevisiae S288C) (protein)
chain: MSPSAVQSSKLEEQSSEIDKLKAKMSQSAATAQQKKEHEYEHLTSVKIVPQRPISDRLQPAIATHYSPHLDGLQDYQRLHKESIEDPAKFFGSKATQFLNWSKPFDKVFIPDPKTGRPSFQNNAWFLNGQLNACYNCVDRHALKTPNKKAIIFEGDEPGQGYSITYKELLEEVCQVAQVLTYSMGVRKGDTVAVYMPMVPEAIITLLAISRIGAIHSVVFAGFSSNSLRDRINDGDSKVVITTDESNRGGKVIETKRIVDDALRETPGVRHVLVYRKTNNPSVAFHAPRDLDWATEKKKYKTYYPCTPVDSEDPLFLLYTSGSTGAPKGVQHSTAGYLLGALLTMRYTFDTHQEDVFFTAGDIGWITGHTYVVYGPLLYGCATLVFEGTPAYPNYSRYWDIIDEHKVTQFYVAPTALRLLKRAGDSYIENHSLKSLRCLGSVGEPIAAEVWEWYSEKIGKNEIPIVDTYWQTESGSHLVTPLAGGVTPMKPGSASFPFFGIDAVVLDPNTGEELNTSHAEGVLAVKAAWPSFARTIWKNHDRYLDTYLNPYPGYYFTGDGAAKDKDGYIWILGRVDDVVNVSGHRLSTAEIEAAIIEDPIVAECAVVGFNDDLTGQAVAAFVVLKNKSSWSTATDDELQDIKKHLVFTVRKDIGPFAAPKLIILVDDLPKTRSGKIMRRILRKILAGESDQLGDVSTLSNPGIVRHLIDSVKL
Consider B3, for which the Michaelis constant (Km) in [5] (setting [9]) came to 348 ± 43 µM; in data set [6] (setting [9]), 161 ± 73 µM.

The record behind these values is PMC8383264, “Structural Characterization of the Reaction and Substrate Specificity Mechanisms of Pathogenic Fungal Acetyl-CoA Synthetases” (ACS Chemical Biology, 2021).
